Results reported in PubChem BioAssay (NCI).
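Values below derive from 48-hour exposures of cells grown in 96-well plates, with endpoints linearly interpolated between the two concentrations bracketing the appropriate inhibition level. GI50 is the concentration that inhibits growth by half. TGI marks complete inhibition of growth.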

Key:
Assay in all cases: inhibition of tumour cell growth, NCI panel, 48 h
[1] = system: SF-295 CNS
[2] = system: NCI-H23 lung
[3] = system: HCT-116 colon
[4] = system: BT-549 breast
[5] = system: HOP-92 NSCLC
[6] = system: U251 CNS
[7] = system: HS 578T breast
[8] = system: RXF 393 renal
[9] = system: IGROV1 ovarian
[10] = system: T-47D breast

Compound | TGI [1] [µM] | TGI [2] [µM] | TGI [3] [µM] | TGI [4] [µM] | TGI [5] [µM] | TGI [6] [µM] | TGI [7] [µM] | TGI [8] [µM] | TGI [9] [µM] | TGI [10] [µM] | GI50 [1] [µM] | GI50 [2] [µM] | GI50 [3] [µM] | GI50 [4] [µM] | GI50 [5] [µM] | GI50 [6] [µM] | GI50 [7] [µM] | GI50 [8] [µM] | GI50 [9] [µM] | GI50 [10] [µM]
CCNC(C)(C)C(SS)c1ccc(Br)cc1 (stereo not drawn) | > 100 | > 100 | > 100 | > 100 | > 100 | > 100 | > 100 | > 100 | > 100 | 93.6 | – | – | – | – | – | – | – | – | – | –
O=S(=O)(Nc1cc(Br)c(O)c2ccccc12)c1ccc(F)cc1 | 29.7 | 7.87 | 6.44 | 21.2 | 4.54 | 7.77 | 9.98 | 14.1 | 5.51 | 8.5 | 15.7 | 2.8 | 2.33 | 8.45 | 1.95 | 2.96 | 2.75 | 3.69 | 2.59 | 2.58
N#CC(C#N)=Cc1c(-c2ccccc2)[nH]c2ccccc12 | 15.5 | > 66.3 | > 100 | > 100 | > 100 | 28 | 8.49 | > 33.3 | 31.9 | > 95.1 | 1.59 | 4.65 | 2.21 | 8.45 | 5.6 | 1.18 | 2.31 | 3.33 | 0.743 | 4.23
Cc1csc(/C=N/NC(=O)c2nnn(-c3ccnc4c(C(F)(F)F)cccc34)c2C)c1 | > 100 | > 100 | > 100 | > 100 | > 100 | > 100 | > 100 | 62.7 | > 100 | > 100 | 34.7 | 48.1 | 36 | > 100 | 55.8 | 22.3 | > 100 | 1.41 | > 100 | 29.5
O=[N+]([O-])c1cc([N+](=O)[O-])c(Cl)c(Cl)c1Cl | 23.1 | 8.04 | 0.743 | 21 | 3.15 | 3.02 | 5.31 | 1.86 | 7.25 | 2.84 | 8.15 | 2.69 | 0.24 | 8.84 | 1.68 | 1.59 | 2.26 | 0.636 | 1.23 | 0.631
CCCCN(CCCC)c1ccc(C(=N)c2ccc(N(C)C)cc2)cc1 | 1.34 | 0.981 | 1.22 | 2.64 | 1.78 | 1.42 | 3.28 | 2.61 | 2.44 | 1.51 | 0.349 | 0.278 | 0.307 | 1.29 | 0.362 | 0.46 | 1.18 | 1.25 | 0.906 | 0.322
O=C(/C=C/c1ccccc1)c1c[nH]c2ccccc2c1=O | 7.18 | 15.2 | 12.1 | 17.8 | 13 | 11 | 6.34 | 11.5 | 16.4 | 17.1 | 2.31 | 3.17 | 3.11 | 4.84 | 3.9 | 2.29 | 2.32 | 3.05 | 3.67 | 3.05
O=C(COc1ccc(/C=C2\Oc3ccccc3C2=O)cc1)Nc1nccs1 | > 100 | > 100 | > 100 | 96.9 | 4.85 | > 100 | 80.5 | 15.1 | – | > 100 | 41.4 | 49.8 | 39.1 | 18.5 | 1.53 | 40.6 | 20.7 | 0.354 | – | 75.4
Cc1cc2cccnc2c2ncccc12 | 4.57 | 87.6 | 7.06 | 41.9 | 17.2 | 12.1 | 47.9 | 6.77 | 6.44 | 21.3 | 0.555 | 3.11 | 1.14 | 2.67 | 2.38 | 0.703 | 4.04 | 1.89 | 1.18 | 3.32
COc1cc(/C=N/Nc2ncnc3c2cnn3C(C)C)ccc1O | > 25 | > 25 | > 25 | > 25 | 4.99 | > 25 | 24.8 | 12.7 | 20.5 | > 21.5 | 9.41 | 6.05 | 8.02 | > 20.4 | 0.357 | 8.11 | 5.04 | 4.66 | 7.56 | 5.31
Cc1cc(=O)oc2c(CN3CCCCC3)c(O)ccc12 | > 100 | > 100 | > 100 | > 100 | > 100 | > 100 | > 100 | > 100 | > 100 | > 100 | – | – | – | – | – | – | – | – | – | –
COc1ccc(C[n+]2c3ccccc3n3c4ccc(N)cc4ccc32)c(OC)c1OC | 38.1 | 24.9 | 83.7 | 16.5 | 3.77 | 14.5 | 35.2 | 21.9 | 40 | 7.03 | 4.22 | 1.99 | 12.6 | 2.42 | 0.571 | 1.7 | 5.81 | 6.3 | 4.58 | 1.42
C=C1C(=O)O[C@H]2[C@H]1CC/C(Cn1cc(CNCCc3c[nH]c4ccc(Cl)cc34)nn1)=C\CC[C@@]1(C)O[C@@H]21 | > 100 | 45.5 | 10 | 17 | 3.05 | 20.9 | 53.1 | 9.69 | 9.59 | 13.8 | 30.9 | 17 | 3.31 | 3.88 | 1.34 | 7.59 | 11.1 | 2.66 | 2.44 | 3.24
